Laboratory results taken from article PMC7615751, “Anionic liposome formulation for oral delivery of thuricin CD, a potential antimicrobial peptide therapeutic” (International journal of pharmaceutics, 2024).

Experiments:
[1] = tested on: L. monocytogenes ATCC 1916; experiment: Bioactivity of dissolved thuricin CD (MIC50, growth curves at OD 590 nm); assay type: cell-based; conditions: 24 h, 37 °C
Protocol: For this study, L. monocytogenes was used as an indicator strain. The minimum inhibitory concentration MIC50 was determined based on the protocol previously described by Mathur et al. ([Mathur, et al., 2017]). MIC50 was established as the concentration of peptides that inhibited 50 % of growth of L. monocytogenes ATCC 1916 ([Rea, 2010]).
Briefly, 1 mg/mL stock solutions of freeze-dried Trnα and Trnβ resuspended in 70 % IPA 0.1 % TFA in water were diluted in sterile PBS to a final concentration of 100 μg/mL (dissolved thuricin). For all the experiments in this, and the following sections, a 1:1 M ratio of Trn α: Trn β was used. The corresponding volumes of each peptide to reach 250 nM of each peptide (0.69 μg/mL Trn α + 0.72 μg/mL Trn β), 500 nM of each peptide (1.38 μg/mL Trn α + 1.43 μg/mL Trn β), 1 μM of each peptide (2.76 μg/mL Trn α + 2.86 μg/mL Trn β), and 2 μM of each peptide (5.53 μg/mL Trn α + 5.72 μg/mL Trn β) in the final well volume were added in triplicate to a 96 well plate. […] L. monocytogenes ATCC 1916 was grown in BHI broth shaking overnight at 37 °C. 150 μL of 10^5 CFU/mL bacterial culture was added to the wells with sample. Blanks were set up in triplicate with only PBS and media as well as a control containing buffer and bacterial culture. The plate was incubated in a Biotek ELx808 Ultra microplate reader at 37 °C for 24 h. Readings were taken every 30 min at 590 nm. […]

[2] = molecular target: T1, pepsin (Sus scrofa, UniProt P00791); experiment: Enzymatic degradation of dissolved thuricin CD by pepsin (residual antibacterial activity); assay type: in vitro ADME; conditions: 5.6 μg/mL Trn α + 5.8 μg/mL Trn β
T1 construct: purchased Sigma Aldrich Ireland Ltd
Protocol: Trn α and Trn β stock solutions (1 mg/mL in 70 % IPA 0.1 % TFA in water) were filter sterilized and diluted to a final concentration of 100 μg/mL in sterile PBS. Pepsin activity was evaluated beforehand according to the haemoglobin assay, based on the principle that haemoglobin in water produces tyrosine peptides soluble in trichloroacetic acid (TCA) when pepsin is applied ([Brodkorb, 2019]). The activity units (AU or μmol/min), defined as the quantity of the enzyme that converts one micromole of substrate per minute, were determined before this test. Pepsin was suspended in cold 0.01 M HCl pH 2 reaching 824 activity units per mL. Trn α and Trn β were added to the same well of a 96-well plate in triplicate to give a final concentration of 5.6 μg/mL and 5.8 μg/mL respectively. […] 25 μL of pepsin solution was also added to each of the wells. This gave a final pepsin concentration/activity of 1.2 mg/mL or 98.8 AU/mL, which is the approximate concentration of enzyme present in the human stomach ([Liu, 2015]). Thuricin alone and pepsin alone were included as control samples with the bacterial culture. Blanks were set up in triplicate with PBS, 0.01 M HCl, and media only (BHI). […] The plate was incubated in a BioTek ELx808 Ultra microplate reader at 37 °C for 24 h at a wavelength of 590 nm. Readings were taken every 30 min for 24 h with the plate shaken mildly before each reading.

[3] = molecular target: T2, trypsin (Sus scrofa, UniProt P00761); experiment: Enzymatic degradation of dissolved thuricin CD by trypsin (residual antibacterial activity); assay type: in vitro ADME; conditions: 4.4 μg/mL Trn α + 4.4 μg/mL Trn β; 19.3 μg/ml trypsin; 3 h, 37 °C; then growth curve 24 h, OD 590 nm; triplicate
T2 construct: purchased Sigma Aldrich Ireland Ltd
Protocol: (§1) Trn α and Trn β stock solutions (1 mg/mL in 70 % IPA 0.1 % TFA in water) were filter sterilized and diluted to a final concentration of 100 μg/mL in sterile PBS. Pepsin activity was evaluated beforehand according to the haemoglobin assay, based on the principle that haemoglobin in water produces tyrosine peptides soluble in trichloroacetic acid (TCA) when pepsin is applied ([Brodkorb, 2019]). The activity units (AU or μmol/min), defined as the quantity of the enzyme that converts one micromole of substrate per minute, were determined before this test. Pepsin was suspended in cold 0.01 M HCl pH 2 reaching 824 activity units per mL. Trn α and Trn β were added to the same well of a 96-well plate in triplicate to give a final concentration of 5.6 μg/mL and 5.8 μg/mL respectively. […] The plate was incubated in a BioTek ELx808 Ultra microplate reader at 37 °C for 24 h at a wavelength of 590 nm. Readings were taken every 30 min for 24 h with the plate shaken mildly before each reading.
(§2) A similar procedure was followed for trypsin and chymotrypsin, but different concentrations were used, and incubation time was 3 h. […] Trypsin activity units were determined by a previously established assay based on the principle that p-toluene-sulfonyl-l-arginine methyl ester (TAME) in water produces p-toluene-sulfonyl-L-arginine plus methanol when trypsin is applied ([Brodkorb, 2019]). […]

[4] = molecular target: T3, α-chymotrypsin (Bos taurus, UniProt P00766); experiment: Enzymatic degradation of dissolved thuricin CD by α-chymotrypsin (residual antibacterial activity); assay type: in vitro ADME; conditions: 4.4 μg/mL Trn α + 4.4 μg/mL Trn β; 19.3 μg/ml α-chymotrypsin; 3 h, 37 °C; then growth curve 24 h, OD 590 nm; triplicate
T3 construct: purchased Sigma Aldrich Ireland Ltd
Protocol: as §1, §2

[5] = tested on: L. monocytogenes ATCC 1916; experiment: Solution behaviour / activity of free thuricin CD in FaSSIF without enzymes; assay type: cell-based; conditions: free thuricin suspended from solid in FaSSIF pH 6.5, 37 °C, 0.2 μm filtered, growth curve 24 h, triplicate
Protocol: (§3) Fasted state simulated intestinal fluid (FaSSIF) and fasted state simulated gastric fluid (FaSSGF) were prepared using Biorelevant FaS-SIF/FaSSGF powder following the manufacturer’s instructions. Briefly, for FaSSIF, 0.21 g NaOH, 1.72 g sodium phosphate monobasic and 3.10 g NaCl were diluted in 400 mL distilled water. The solution was stirred until dissolved. The pH was then adjusted to 6.5 with 0.1 M HCl. 1.12 g FaSSIF powder was added and finally, the volume was topped up to 500 mL. For FaSSGF, 2 g NaCl was dissolved in 900 mL distilled water. The pH was adjusted to 1.6 with 1 M HCl.
Trn α and Trn β solutions at concentrations of 0.5 mg/mL in FaSSGF/FaSSIF were suspended directly from lyophilised powder (free thuricin). Further dilutions were carried out to reach concentrations of 2 times, 5 times and 10 times the MIC50 in the final volume to be used for the experiment. The suspensions were distributed in different microtubes and incubated at 37 °C, 300 rpm in an incubator for 0.5 h. An aliquot of each concentration was taken, and filter sterilized with a 0.2 μm PES filter. 50 μL of each sterile solution was transferred to a 96-well microtiter plate in triplicate. Each well was filled with 150 μL of a L. monocytogenes culture at an OD of 0.1. A control was set with 50 μL of FaSSGF/FaSSIF and 150 μL culture. The plate was incubated in a Biotek ELx808 Ultra microplate reader at 37 °C for 24 h at a wavelength of 590 nm. Readings were taken every 30 min for 24 h with the plate shaken mildly before each one. The readings collected from those samples were considered as time 0. In the meantime, the microtubes were put back in the incubator with reduced shaking. After 1, 4 and 24 h a new aliquot was taken, and the same protocol was followed for activity testing.

[6] = tested on: L. monocytogenes ATCC 1916; experiment: Solution behaviour / activity of free thuricin CD in FaSSGF without enzymes; assay type: cell-based
Protocol: as §3
Trn α and Trn β solutions at concentrations of 0.5 mg/mL in FaSSGF/FaSSIF were suspended directly from lyophilised powder (free thuricin). Further dilutions were carried out to reach concentrations of 2 times, 5 times and 10 times the MIC50 in the final volume to be used for the experiment. The suspensions were distributed in different microtubes and incubated at 37 °C, 300 rpm in an incubator for 0.5 h. An aliquot of each concentration was taken, and filter sterilized with a 0.2 μm PES filter. […] The plate was incubated in a Biotek ELx808 Ultra microplate reader at 37 °C for 24 h at a wavelength of 590 nm. Readings were taken every 30 min for 24 h with the plate shaken mildly before each one. The readings collected from those samples were considered as time 0. […]

[7] = tested on: L. monocytogenes ATCC 1916; experiment: Biological activity of Trn αβ loaded liposomes vs free thuricin CD in acetate buffer; assay type: cell-based; conditions: 1.25 and 2.50 μg/mL of each peptide, 37 °C, 24 h, OD 590 nm, triplicate
Protocol: The activity of Trn αβ liposomes was evaluated following the methodology previously described for thuricin CD. Briefly, the liposome suspension was filtered with a 0.45 μm PES sterile filter. Different volumes of the sterile liposome suspension were added to reach final concentrations of Trn α and Trn β of 1.25 and 2.50 μg/mL in each well. Samples were tested in triplicate. […] 150 μL of 10^5 CFU/mL L. monocytogenes ATCC 1916 culture was added to the wells with sample. Blanks were set up in triplicate with only media, the corresponding blank liposome suspension volume, and PBS. Controls contained inoculated media and PBS. The plate was incubated in a BioTek ELx808 Ultra microplate reader at 37 °C for 24 h. Readings were taken every 30 min at 590 nm. The same procedure was followed for free thuricin (freeze dried thuricin powder directly suspended in acetate buffer).

[8] = molecular target: T1, pepsin; experiment: Biological activity after incubation in FaSSGF with pepsin; assay type: in vitro ADME; conditions: dissolved Trn α and β, 1.2 mg/mL pepsin in FaSSGF, 30 min, 37 °C; double the MIC50; L. monocytogenes growth curve 24 h
Protocol: The activity of αβ liposome suspension and dissolved αβ peptides after exposing both to FaSSGF with pepsin and FaSSIF without pancreatin was analysed. No pancreatin was added to FaSSIF because it inhibitied L. monocytogenes growth itself. Trn αβ loaded liposome suspension or dissolved thuricin (thuricin powder in 70 % IPA 0.1 % TFA in water and further diluted in acetate buffer) + pepsin in FaSSGF were prepared as described in the previous section. Control samples with acetate buffer + pepsin in FaSSGF were also prepared.
After 30 min incubation, pepsin was deactivated by heating the samples at 70 °C for 10 min. The volume necessary to reach a concentration of double the MIC50 of thuricin peptides was added to a 96-well plate. The wells were topped to 50 μL with PBS. 150 μL of 10^5 CFU/mL bacterial cell culture (L. monocytogenes) was added to each well. Blanks were set with media and control samples. The plate was incubated in a BioTek ELx808 Ultra microplate reader at 37 °C for 24 h at a wavelength of 590 nm. Readings were taken every 30 min for 24 h with the plate shaken mildly before each reading.

[9] = tested on: Caco-2 cells; experiment: Presto blue cytotoxicity assay; assay type: cell-based; conditions: 5 μg/mL Trn α + 5 μg/mL Trn β, 24 h, 37 °C, absorbance 570 nm
Protocol: The biocompatibility of Trn αβ liposome suspension and dissolved thuricin CD with intestinal epithelial cells were tested. Caco-2 cells were grown in high glucose Dulbecco’s modified Eagle’s medium supplemented with 10 % fetal bovine serum, 1 % L-Glutamine, 1 % pen-strep, and 1 % non-essential amino acids at 37 °C, with 5 % CO2 and 95 % relative humidity. Approximately 10,000 cells were seeded per well in a 96-well plate. The plate was incubated overnight to ensure the cells adhered to the wells. The media was removed from the wells and filter-sterilized dissolved thuricin CD and Trn αβ liposome suspension samples at a final concentration of 5 μg/mL of each peptide were added 1:1 (v/v) with fresh media. Control wells were included by adding blank liposomes and just media to the cells. The plate was incubated for 24 h at 37 °C, with 5 % CO2 and 95 % relative humidity. The media was removed from the wells, 10 μL Presto blue +90 μL fresh media was added to each well and left incubating for 60 min. Finally, the absorbances of the solutions in the plate were read at 570 nm and plotted for all samples.

[10] = cell-free supernatants; ref Rea, 2010; cited from earlier work
From the text: However, because of their peptide nature, bacteriocins are susceptible to degradation, aggregation, and precipitation in the body, and can show low solubility and poor permeability ([Flynn et al., 2021]). Previous reports have evaluated the heat and pH stability of thuricin CD cell-free supernatants. […] Activity was also maintained in a pH range of 2 to 9 ([Rea, 2010]). Neither quantitative nor qualitative data on the solubility of thuricin in biorel ...

[11] = FaSSIF vs PBS; ref Ryan et al., 2021; cited from earlier work
From the text: The pH in FaSSIF is 6.5, and the pI of Trn α and Trn β is close to 4, so the thuricin CD peptides should both be slightly negatively charged in this solution (ExPASy, 2022), helping their dissolution in this medium. Also, it has been previously reported that lacticin 3147, a two peptide bacteriocin with similar ...

T1 sequence (P00791 60-385): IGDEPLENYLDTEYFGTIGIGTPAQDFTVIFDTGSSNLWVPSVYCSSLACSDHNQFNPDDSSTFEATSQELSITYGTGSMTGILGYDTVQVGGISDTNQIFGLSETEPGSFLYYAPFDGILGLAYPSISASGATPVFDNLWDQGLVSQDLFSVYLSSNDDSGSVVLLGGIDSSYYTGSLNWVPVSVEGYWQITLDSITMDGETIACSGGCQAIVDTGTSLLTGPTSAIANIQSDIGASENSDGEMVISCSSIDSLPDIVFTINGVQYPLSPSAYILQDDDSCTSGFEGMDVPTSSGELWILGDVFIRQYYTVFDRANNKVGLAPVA
T2 sequence (P00761 9-231): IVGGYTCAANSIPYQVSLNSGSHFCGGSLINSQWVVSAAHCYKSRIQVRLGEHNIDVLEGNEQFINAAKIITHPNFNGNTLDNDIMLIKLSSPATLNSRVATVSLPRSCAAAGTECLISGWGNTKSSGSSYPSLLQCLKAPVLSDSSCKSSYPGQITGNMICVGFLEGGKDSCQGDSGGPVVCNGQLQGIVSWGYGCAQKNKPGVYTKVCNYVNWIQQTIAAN

Row | Substance | effect on bacterial growth ([1]; 0.25 μM of each peptide) | inhibition of bacterial growth ([1]; 0.5 μM of each peptide, 1:1 M ratio) | activity against L. monocytogenes ATCC 1916 after exposure to pepsin ([2]; pepsin 1.2 mg/mL (98.8 AU/mL), 0.01 M HCl pH 2/PBS, 1.5 h, 37 °C, 70 rpm, then growth curve 24 h, OD 590 nm, triplicate) | time for which bacterial growth was inhibited, thuricin alone (no enzyme) ([2]; positive control without pepsin, incubated 1.5 h at 37 °C before culture, growth curve 24 h) | activity against L. monocytogenes ATCC 1916 after exposure to trypsin [3] | activity against L. monocytogenes ATCC 1916 after exposure to α-chymotrypsin [4] | activity after addition of lyophilised powder to FaSSIF, five times the MIC50 ([5]; all time points 0–24 h) | activity after addition of lyophilised powder to FaSSIF, ten times the MIC50 ([5]; all time points 0–24 h) | activity after addition of lyophilised powder to FaSSIF, double the MIC50 ([5]; time points 0, 1, 4, 24 h) | activity of peptides pre-dissolved in 70 % IPA 0.1 % TFA in water and diluted in FaSSGF ([6]; 2, 5 and 10 times the MIC50, 1:1 molar ratio, FaSSGF pH 1.6 (Figure S3)) | activity after addition of lyophilised powder to FaSSGF ([6]; free thuricin suspended from solid in FaSSGF pH 1.6, 37 °C, x2, x5, x10 MIC50, 0, 1, 4, 24 h, 0.2 μm filtered, growth curve 24 h, triplicate) | activity of lyophilised peptides directly suspended in acetate buffer [7] | activity after exposure to pepsin in FaSSGF [8] | cytotoxicity: absorbance compared to the control group of living cells [9] | heat stability at 85 °C [10] | heat stability at 90 °C [10] | heat stability at 100 °C [10] | solubility in FaSSIF [11]
1 | thuricin CD | could not significantly inhibit bacterial growth | approximately 50% | deactivated | ~17 h | retained its activity | growth comparable to the control | activity is observed | activity is observed | no activity is observed | retained thuricin CD activity | no activity was detected | do not demonstrate any activity | completely lost activity | none of the samples exhibited any significant difference in absorbance | stable | reducing its activity | complete activity loss | 
2 | lacticin 3147 |  |  |  |  |  |  |  |  |  |  |  |  |  |  |  |  |  | improved solubility in FaSSIF compared to PBS
